What was measured:
[1] = molecular target: T1, protein tyrosine phosphatase 1B (PTP1B) (Homo sapiens, UniProt P18031); assay: PTP1B inhibitory assay, pNPP method
T1 sequence (P18031 1-435): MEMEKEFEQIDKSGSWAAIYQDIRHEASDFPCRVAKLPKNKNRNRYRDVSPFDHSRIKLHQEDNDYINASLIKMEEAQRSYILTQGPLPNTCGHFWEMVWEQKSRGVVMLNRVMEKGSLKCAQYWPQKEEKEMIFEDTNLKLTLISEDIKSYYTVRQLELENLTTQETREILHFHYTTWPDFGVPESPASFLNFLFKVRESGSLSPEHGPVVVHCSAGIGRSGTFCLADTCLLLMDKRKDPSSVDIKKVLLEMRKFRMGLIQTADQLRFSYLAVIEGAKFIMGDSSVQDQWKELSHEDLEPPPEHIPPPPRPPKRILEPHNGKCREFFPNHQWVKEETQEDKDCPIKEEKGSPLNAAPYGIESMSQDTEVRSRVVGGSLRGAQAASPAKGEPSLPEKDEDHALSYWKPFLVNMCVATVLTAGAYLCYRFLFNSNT
Experimental: These isolated sesquiterpenes were also assessed for their inhibitory activities against PTP1B.

[2] = Cytotoxicity assay, SRB method, HeLa; type: cell-based; conditions: human, adriamycin positive control, read-out: cytotoxicity IC50 against HeLa cell lines
Experimental: (§1) Considering the reported cytotoxic activities of some sesquiterpenes, cyclopentenone derivatives, and cembranoid diterpenes, all the compounds were evaluated for their cytotoxic activities against HeLa (human cervical carcinoma), HCT-116 (human colon carcinoma), BEL-7402 (human hepatocellular carcinoma), K562 (human leukemia), and Jurkat (human acute leukemia T) tumor cell lines.

[3] = Cytotoxicity assay, SRB method, HCT-116; type: cell-based; conditions: human, HCT-116 cells (human colon carcinoma); HCT-116, SRB method, adriamycin positive control; read-out: cytotoxicity IC50 against HCT-116 cell lines
Experimental: as §1

[4] = HeLa cells (human cervical carcinoma)

Compound	IC50 [1] [µM]	IC50 [2, 4] [µM]	also measured
C=C(C)C1CC2=C(C(=O)OC)C=C(O2)C(O)C(C)(O)CC2C=C(C(=O)O2)C(OC(C)=O)C1 (stereo not shown) [Compound 14, Molestin E]	–	–	IC50 [2]: 5.26 µM; IC50 [3]: 8.37 µM
C=C(C)[C@@H]1C/C=C2\C(=O)O[C@@H](C[C@]3(C)CC(=O)[C@H](CC(=O)C1)O3)[C@@H]2O [Compound 17, 5-epi-sinuleptolide]	–	6.66	–
C=C(C)[C@@H]1C/C=C2\C(=O)O[C@@H](C[C@]3(C)CC(=O)[C@@H](CC(=O)C1)O3)[C@@H]2O [Compound 18, sinuleptolide]	–	6.1	–

More lines, main results first:

IC50 [1] [µM]	Compound	IC50 [2, 4] [µM]	also measured
218	CC(C)C1=CC2=C(C(=O)C[C@@]2(C)O)[C@H](C)CC1 [Compound 4, Molestin C]	–	–
344	COC12CCC(C)(O)C1=CC(=O)CCC2C (stereo not shown) [Compound 5, Molestin D]	–	–
1.24	C=C/C(C)=C\CCC(C)Cc1cc(C(=O)O)co1 (stereo not shown) [Compound 8, (5′Z)-5-(2′,6′-Dimethylocta-5′,7′-dienyl)-furan-3-carboxylic acid]	–	–

From paper PMC6317055, “Metabolites from the Paracel Islands Soft Coral Sinularia cf. molesta” (Marine Drugs, 2018)
